Data taken from the NIST ThermoML archive (doi:10.1016/j.fluid.2008.01.024).
Numbers after ± are expanded uncertainties.

How the values were obtained:
[1] = relative permittivity at zero frequency (dimensionless); details: 303.15 K; 101 kPa; Liquid; capacitive measurement method
[2] = relative permittivity at zero frequency (dimensionless); xn = mol fraction of the nth substance listed; details: 303.15 K, 101 kPa, Liquid, capacitive measurement method

CN(C)CCO [2-(N,N-dimethylamino)ethanol]
relative permittivity at zero frequency [1]: 17.18 ± 0.1

CN(C)CCO [2-(N,N-dimethylamino)ethanol] + OCC(O)CO
relative permittivity at zero frequency ([2]; x2 = 0): 17.18 ± 0.1
relative permittivity at zero frequency ([2]; x2 = 0.09): 18.66 ± 0.11
relative permittivity at zero frequency ([2]; x2 = 0.175): 20.4 ± 0.12
relative permittivity at zero frequency ([2]; x2 = 0.257): 22.09 ± 0.13
relative permittivity at zero frequency ([2]; x2 = 0.334): 23.83 ± 0.14
relative permittivity at zero frequency ([2]; x2 = 0.409): 25.5 ± 0.15
relative permittivity at zero frequency ([2]; x2 = 0.48): 27.25 ± 0.16
relative permittivity at zero frequency ([2]; x2 = 0.547): 28.98 ± 0.17
relative permittivity at zero frequency ([2]; x2 = 0.612): 30.54 ± 0.18
relative permittivity at zero frequency ([2]; x2 = 0.675): 32.59 ± 0.2
relative permittivity at zero frequency ([2]; x2 = 0.734): 33.74 ± 0.2
relative permittivity at zero frequency ([2]; x2 = 0.792): 35.03 ± 0.21
relative permittivity at zero frequency ([2]; x2 = 0.847): 37.13 ± 0.22
relative permittivity at zero frequency ([2]; x2 = 0.9): 38.63 ± 0.23
relative permittivity at zero frequency ([2]; x2 = 0.951): 39.96 ± 0.24

CN(C)C=O [dimethylformamide]
relative permittivity at zero frequency [1]: 36.55 ± 0.22

CN(C)C=O [dimethylformamide] + OCC(O)CO
relative permittivity at zero frequency ([2]; x2 = 0): 36.55 ± 0.22

NC=O [formamide]
relative permittivity at zero frequency [1]: 106.14 ± 0.64

NC=O [formamide] + OCC(O)CO
relative permittivity at zero frequency ([2]; x2 = 0): 106.14 ± 0.64
relative permittivity at zero frequency ([2]; x2 = 0.037): 103.13 ± 0.62
relative permittivity at zero frequency ([2]; x2 = 0.077): 100.3 ± 0.6
relative permittivity at zero frequency ([2]; x2 = 0.12): 96.91 ± 0.58
relative permittivity at zero frequency ([2]; x2 = 0.165): 93.46 ± 0.56
relative permittivity at zero frequency ([2]; x2 = 0.214): 89.87 ± 0.54
relative permittivity at zero frequency ([2]; x2 = 0.266): 85.74 ± 0.51
relative permittivity at zero frequency ([2]; x2 = 0.322): 81.37 ± 0.49
relative permittivity at zero frequency ([2]; x2 = 0.383): 76.3 ± 0.46
relative permittivity at zero frequency ([2]; x2 = 0.449): 71.94 ± 0.43
relative permittivity at zero frequency ([2]; x2 = 0.521): 66.48 ± 0.4
relative permittivity at zero frequency ([2]; x2 = 0.599): 61.52 ± 0.37
relative permittivity at zero frequency ([2]; x2 = 0.685): 56.42 ± 0.34
relative permittivity at zero frequency ([2]; x2 = 0.779): 50.76 ± 0.3
relative permittivity at zero frequency ([2]; x2 = 0.884): 45.45 ± 0.27
